Experimental data published in patent US20090018134A1, “Compounds - 945” (AstraZeneca AB, priority 2007, published 2009).

These compounds were tested against T1, mTOR (Homo sapiens, UniProt P42345) (assay: In Vitro mTOR Kinase Assay (Echo), Test (a)(ii)). Conditions: table of enzyme assay Test (a)(ii); read-out: Test (a)(ii) IC50.
T1 construct: FLAG; made in house
T1 sequence (P42345 1362-2549): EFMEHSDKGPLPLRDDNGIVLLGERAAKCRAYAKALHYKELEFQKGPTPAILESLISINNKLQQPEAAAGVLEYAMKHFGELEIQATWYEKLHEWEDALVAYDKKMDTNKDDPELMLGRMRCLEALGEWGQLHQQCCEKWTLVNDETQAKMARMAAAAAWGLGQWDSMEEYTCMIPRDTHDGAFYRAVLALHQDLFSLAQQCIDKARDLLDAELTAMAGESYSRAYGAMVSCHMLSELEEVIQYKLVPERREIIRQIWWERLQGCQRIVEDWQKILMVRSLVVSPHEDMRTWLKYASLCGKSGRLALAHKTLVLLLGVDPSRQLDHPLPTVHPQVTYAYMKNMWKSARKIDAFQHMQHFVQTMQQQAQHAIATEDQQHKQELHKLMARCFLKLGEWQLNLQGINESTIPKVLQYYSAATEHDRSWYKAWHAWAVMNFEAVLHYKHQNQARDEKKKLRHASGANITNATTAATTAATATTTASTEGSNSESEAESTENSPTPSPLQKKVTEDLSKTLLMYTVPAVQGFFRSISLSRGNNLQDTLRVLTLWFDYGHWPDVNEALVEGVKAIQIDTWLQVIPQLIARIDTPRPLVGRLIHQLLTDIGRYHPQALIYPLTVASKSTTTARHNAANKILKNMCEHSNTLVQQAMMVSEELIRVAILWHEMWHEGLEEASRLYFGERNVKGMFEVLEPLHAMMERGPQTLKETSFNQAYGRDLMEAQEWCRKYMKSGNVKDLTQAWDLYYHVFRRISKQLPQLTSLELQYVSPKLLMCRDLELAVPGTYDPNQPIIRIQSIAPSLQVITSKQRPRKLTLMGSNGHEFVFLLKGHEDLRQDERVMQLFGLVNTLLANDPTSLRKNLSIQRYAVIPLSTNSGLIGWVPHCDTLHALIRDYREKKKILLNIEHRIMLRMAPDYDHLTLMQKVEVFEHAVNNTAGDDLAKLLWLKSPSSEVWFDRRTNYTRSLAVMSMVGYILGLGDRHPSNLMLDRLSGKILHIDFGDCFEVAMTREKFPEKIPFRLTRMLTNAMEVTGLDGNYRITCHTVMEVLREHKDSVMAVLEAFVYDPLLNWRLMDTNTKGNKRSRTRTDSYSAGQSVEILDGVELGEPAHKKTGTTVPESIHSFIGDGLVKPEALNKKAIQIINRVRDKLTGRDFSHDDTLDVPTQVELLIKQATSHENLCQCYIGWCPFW
Assay type: biochemical
Outline: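 FLAG-tagged human mTOR truncation (residues 1362-2549) expressed in HEK293 cells and FLAG-purified. Compounds dispensed acoustically, reaction 2 h at room temperature, stopped with EDTA. Phosphorylation of biotinylated peptide detected by AlphaScreen with anti-p70 S6K (T389) antibody overnight; IC50 reported.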
Work on CC(C)NC(=O)Nc1ccc(-c2nc(N3CCOC[C@@H]3C)cc(C3(S(=O)(=O)c4ccccc4)CC3)n2)cc1 [Example 36bf, 1-[4-[4-[1-(benzenesulfonyl)cyclopropyl]-6-[(3S)-3-methylmorpholin-4-yl]pyrimidin-2-yl]phenyl]-3-propan-2-ylurea] yielded an IC50 of 4.57 nM. For CCCNC(=O)Nc1ccc(-c2nc(N3CCOC[C@@H]3C)cc(C3(S(=O)(=O)c4ccccc4)CC3)n2)cc1 [Example 36bi, 3-[4-[4-[1-(benzenesulfonyl)cyclopropyl]-6-[(3S)-3-methylmorpholin-4-yl]pyrimidin-2-yl]phenyl]-1-propylurea], the IC50 was 2.31 nM. C[C@H]1COCCN1c1cc(C2(S(=O)(=O)c3ccccc3)CC2)nc(-c2ccc(NC(=O)NC(C)(C)CO)cc2)n1 [Example 36bk, 1-[4-[4-[1-(benzenesulfonyl)cyclopropyl]-6-[(3S)-3-methylmorpholin-4-yl]pyrimidin-2-yl]phenyl]-3-(1-hydroxy-2-methylpropan-2-yl)urea] gave an IC50 of 4.33 nM. Compound C[C@H]1COCCN1c1cc(C2(S(=O)(=O)c3ccccc3)CC2)nc(-c2ccc(NC(=O)NCCC#N)cc2)n1 [Example 36bm, 1-[4-[4-[1-(benzenesulfonyl)cyclopropyl]-6-[(3S)-3-methylmorpholin-4-yl]pyrimidin-2-yl]phenyl]-3-(2-cyanoethyl)urea] has an IC50 of 1.93 nM. Compound C[C@H]1COCCN1c1cc(C2(S(=O)(=O)c3ccccc3)CC2)nc(-c2ccc(NC(=O)NCc3ncc[nH]3)cc2)n1 [Example 36bn, 1-[4-[4-[1-(benzenesulfonyl)cyclopropyl]-6-[(3S)-3-methylmorpholin-4-yl]pyrimidin-2-yl]phenyl]-3-(1H-imidazol-2-ylmethyl)urea] has an IC50 of 6.37 nM. With C[C@H]1COCCN1c1cc(C2(S(=O)(=O)c3ccccc3)CC2)nc(-c2ccc(NC(=O)NC3(CO)CC3)cc2)n1 [Example 36bo, 1-[4-[4-[1-(benzenesulfonyl)cyclopropyl]-6-[(3S)-3-methylmorpholin-4-yl]pyrimidin-2-yl]phenyl]-3-[1-(hydroxymethyl)cyclopropyl]urea] the IC50 was 17.6 nM. Compound C[C@H]1COCCN1c1cc(C2(S(=O)(=O)c3ccccc3)CC2)nc(-c2ccc(NC(=O)NC3COC3)cc2)n1 [Example 36bp, 1-[4-[4-[1-(benzenesulfonyl)cyclopropyl]-6-[(3S)-3-methylmorpholin-4-yl]pyrimidin-2-yl]phenyl]-3-(oxetan-3-yl)urea] has an IC50 of 1.98 nM. C[C@H]1COCCN1c1cc(C2(S(=O)(=O)c3ccccc3)CC2)nc(-c2ccc(NC(=O)Nc3ncns3)cc2)n1 [Example 36bq, 1-[4-[4-[1-(benzenesulfonyl)cyclopropyl]-6-[(3S)-3-methylmorpholin-4-yl]pyrimidin-2-yl]phenyl]-3-(1,2,4-thiadiazol-5-yl)urea] was tested, and the IC50 was 1.31 nM. Work on C[C@H]1COCCN1c1cc(C2(S(=O)(=O)c3ccccc3)CC2)nc(-c2ccc(NC(=O)Nc3cnn(C)c3)cc2)n1 [Example 36br, 1-[4-[4-[1-(benzenesulfonyl)cyclopropyl]-6-[(3S)-3-methylmorpholin-4-yl]pyrimidin-2-yl]phenyl]-3-(1-methylpyrazol-4-yl)urea] yielded an IC50 of 1.88 nM. CNC(=O)Nc1ccc(-c2nc(N3CCOC[C@@H]3C)cc(C3(S(=O)(=O)c4ccccc4)CCC3)n2)cc1 [Example 36bu, 1-[4-[4-[1-(benzenesulfonyl)cyclobutyl]-6-[(3S)-3-methylmorpholin-4-yl]pyrimidin-2-yl]phenyl]-3-methylurea] gave an IC50 of 1.18 nM. With C[C@H]1COCCN1c1cc(C2(S(=O)(=O)c3ccccc3)CCC2)nc(-c2ccc(NC(=O)Nc3cnn(C)c3)cc2)n1 [Example 36bv, 1-[4-[4-[1-(benzenesulfonyl)cyclobutyl]-6-[(3S)-3-methylmorpholin-4-yl]pyrimidin-2-yl]phenyl]-3-(1-methylpyrazol-4-yl)urea] the IC50 was 2.64 nM. C[C@H]1COCCN1c1cc(C2(S(=O)(=O)c3ccccc3)CCCC2)nc(-c2ccc(NC(=O)NC3CC3)cc2)n1 [Example 36bw, 1-[4-[4-[1-(benzenesulfonyl)cyclopentyl]-6-[(3S)-3-methylmorpholin-4-yl]pyrimidin-2-yl]phenyl]-3-cyclopropylurea] showed an IC50 of 9.09 nM. Work on C[C@H]1COCCN1c1cc(C2(S(=O)(=O)c3ccccc3)CCCC2)nc(-c2ccc(NC(=O)NCCO)cc2)n1 [Example 36bx, 1-[4-[4-[1-(benzenesulfonyl)cyclopentyl]-6-[(3S)-3-methylmorpholin-4-yl]pyrimidin-2-yl]phenyl]-3-(2-hydroxyethyl)urea] yielded an IC50 of 2.69 nM. With C[C@H]1COCCN1c1cc(C2(S(=O)(=O)c3ccccc3)CCCC2)nc(-c2ccc(NC(=O)NCCCO)cc2)n1 [Example 36by, 1-[4-[4-[1-(benzenesulfonyl)cyclopentyl]-6-[(3S)-3-methylmorpholin-4-yl]pyrimidin-2-yl]phenyl]-3-(3-hydroxypropyl)urea] the IC50 was 12 nM. Work on C[C@H]1COCCN1c1cc(C2(S(=O)(=O)c3ccccc3)CCCC2)nc(-c2ccc(NC(=O)NCCC#N)cc2)n1 [Example 36bz, 1-[4-[4-[1-(benzenesulfonyl)cyclopentyl]-6-[(3S)-3-methylmorpholin-4-yl]pyrimidin-2-yl]phenyl]-3-(2-cyanoethyl)urea] yielded an IC50 of 14.3 nM. In the case of C[C@H]1COCCN1c1cc(C2(S(=O)(=O)CCCO)CC2)nc(-c2ccc(NC(=O)NCc3ncc[nH]3)cc2)n1 [Example 36c, 1-[4-[4-[1-(3-hydroxypropylsulfonyl)cyclopro-pyl]-6-[(3S)-3-methylmorpholin-4-yl]pyrimidin-2-yl]phenyl]-3-(1H-imidazol-2-ylmethyl)urea], the IC50 is reported as 114 nM. With CNC(=O)Nc1ccc(-c2nc(N3CCOC[C@@H]3C)cc(C3(S(=O)(=O)CCCO)CCOCC3)n2)cc1 [Example 36ca, 1-[4-[4-[4-(3-hydroxypropylsulfonyl)oxan-4-yl]-6-[(3S)-3-methylmorpholin-4-yl]pyrimidin-2-yl]phenyl]-3-methylurea] the IC50 was 310 nM. CCNC(=O)Nc1ccc(-c2nc(N3CCOC[C@@H]3C)cc(C3(S(=O)(=O)CCCO)CCOCC3)n2)cc1 [Example 36cb, 1-ethyl-3-[4-[4-[4-(3-hydroxypropylsulfonyl)oxan-4-yl]-6-[(3S)-3-methylmorpholin-4-yl]pyrimidin-2-yl]phenyl]urea] was tested, and the IC50 was 163 nM. C[C@H]1COCCN1c1cc(C2(S(=O)(=O)CCCO)CCOCC2)nc(-c2ccc(NC(=O)NC3CC3)cc2)n1 [Example 36cc, 3-cyclopropyl-1-[4-[4-[4-(3-hydroxypropylsulfonyl)oxan-4-yl]-6-[(3S)-3-methylmorpholin-4-yl]pyrimidin-2-yl]phenyl]urea] was tested, and the IC50 was 129 nM. C[C@H]1COCCN1c1cc(C2(S(=O)(=O)CCCO)CCOCC2)nc(-c2ccc(NC(=O)NC3CCC3)cc2)n1 [Example 36cd, 3-cyclobutyl-1-[4-[4-[4-(3-hydroxypropylsulfonyl)oxan-4-yl]-6-[(3S)-3-methylmorpholin-4-yl]pyrimidin-2-yl]phenyl]urea] showed an IC50 of 147 nM. Compound C[C@H]1COCCN1c1cc(C2(S(=O)(=O)CCCO)CCOCC2)nc(-c2ccc(NC(=O)NCCC#N)cc2)n1 [Example 36ce, 3-(2-cyanoethyl)-1-[4-[4-[4-(3-hydroxypropylsulfonyl)oxan-4-yl]-6-[(3S)-3-methylmorpholin-4-yl]pyrimidin-2-yl]phenyl]urea] has an IC50 of 420 nM. CCCNC(=O)Nc1ccc(-c2nc(N3CCOC[C@@H]3C)cc(C3(S(=O)(=O)CCCO)CCOCC3)n2)cc1 [Example 36cf, 3-[4-[4-[4-(3-hydroxypropylsulfonyl)oxan-4-yl]-6-[(3S)-3-methylmorpholin-4-yl]pyrimidin-2-yl]phenyl]-1-propylurea] showed an IC50 of 286 nM. Work on C[C@H]1COCCN1c1cc(C2(S(=O)(=O)CCCO)CCOCC2)nc(-c2ccc(NC(=O)NCCO)cc2)n1 [Example 36cg, 3-(2-hydroxyethyl)-1-[4-[4-[4-(3-hydroxypropylsulfonyl)oxan-4-yl]-6-[(3S)-3-methylmorpholin-4-yl]pyrimidin-2-yl]phenyl]urea] yielded an IC50 of 136 nM. In the case of C[C@H]1COCCN1c1cc(C2(S(=O)(=O)CCCO)CCOCC2)nc(-c2ccc(NC(=O)Nc3cnn(C)c3)cc2)n1 [Example 36ch, 1-[4-[4-[4-(3-hydroxypropylsulfonyl)oxan-4-yl]-6-[(3S)-3-methylmorpholin-4-yl]pyrimidin-2-yl]phenyl]-3-(1-methylpyrazol-4-yl)urea], the IC50 is reported as 208 nM. Compound C[C@H]1COCCN1c1cc(C2(S(=O)(=O)CCCO)CCOCC2)nc(-c2ccc(NC(=O)Nc3nccs3)cc2)n1 [Example 36ci, 1-[4-[4-[4-(3-hydroxypropylsulfonyl)oxan-4-yl]-6-[(3S)-3-methylmorpholin-4-yl]pyrimidin-2-yl]phenyl]-3-(1,3-thiazol-2-yl)urea] has an IC50 of 38.6 nM. In the case of C[C@H]1COCCN1c1cc(C2(S(=O)(=O)CCCO)CC2)nc(-c2ccc(NC(=O)Nc3nccs3)cc2)n1 [Example 36cj, 1-[4-[4-[1-(3-hydroxypropylsulfonyl)cyclopropyl]-6-[(3S)-3-methylmorpholin-4-yl]pyrimidin-2-yl]phenyl]-3-(1,3-thiazol-2-yl)urea], the IC50 is reported as 3.33 nM. C[C@H]1COCCN1c1cc(C2(S(=O)(=O)CCCO)CC2)nc(-c2ccc(NC(=O)N(C)C3CC3)cc2)n1 [Example 36ck, 1-cyclopropyl-3-[4-[4-[1-(3-hydroxypropylsulfonyl)cyclopropyl]-6-[(3S)-3-methylmorpholin-4-yl]pyrimidin-2-yl]phenyl]-1-methylurea] gave an IC50 of 2620 nM. For C[C@H]1COCCN1c1cc(C2(S(=O)(=O)CCCO)CC2)nc(-c2ccc(NC(=O)NC3(C)CC3)cc2)n1 [Example 36cl, 1-[4-[4-[1-(3-hydroxypropylsulfonyl)cyclopropyl]-6-[(3S)-3-methylmorpholin-4-yl]pyrimidin-2-yl]phenyl]-3-(1-methylcyclopropyl)urea], the IC50 was 68.1 nM. In the case of C[C@H]1COCCN1c1cc(C2(S(=O)(=O)CCCO)CC2)nc(-c2ccc(NC(=O)NCC(F)F)cc2)n1 [Example 36cm, 3-(2,2-difluoroethyl)-1-[4-[4-[1-(3-hydroxypropylsulfonyl)cyclopropyl]-6-[(3S)-3-methylmorpholin-4-yl]pyrimidin-2-yl]phenyl]urea], the IC50 is reported as 9.46 nM.
